Results: the NIST ThermoML archive (doi:10.1016/j.jct.2011.10.027)
± gives the expanded uncertainty stated by the source.

Experiments:
[1] = refractive index (Na D-line) (dimensionless); conditions: 293.15 K; 101.33 kPa; Liquid; Standard Abbe refractometry
[2] = 101.33 kPa, Liquid, Vibrating tube method

Row | SMILES | refractive index [1] | mass density ([2]; 293.15 K) [kg/m3] | mass density ([2]; 298.15 K) [kg/m3] | mass density ([2]; 303.15 K) [kg/m3] | mass density ([2]; 313.15 K) [kg/m3] | mass density ([2]; 323.15 K) [kg/m3] | mass density ([2]; 333.15 K) [kg/m3]
1 | Cc1ccccc1C [1,2-dimethylbenzene] | 1.5015 ± 0.0005 | 879.79 ± 0.23 | 875.58 ± 0.23 | 871.37 ± 0.24 | 862.78 ± 0.24 | 854.02 ± 0.24 | 845.2 ± 0.24
2 | Cc1ccc(C)cc1 [1,4-dimethylbenzene] | 1.4922 ± 0.0005 | 861.02 ± 0.24 | 856.68 ± 0.24 | 852.33 ± 0.24 | 843.59 ± 0.24 | 834.81 ± 0.24 | 825.96 ± 0.24
3 | O=[N+]([O-])c1ccccc1 [nitrobenzene] | 1.549 ± 0.0005 | 1203.13 ± 0.4 | 1198.17 ± 0.39 | 1193.21 ± 0.39 | 1183.3 ± 0.38 | 1173.38 ± 0.37 | 1163.45 ± 0.36
4 | CCc1ccccc1 [ethylbenzene] | 1.4922 ± 0.0005 | 866.99 ± 0.24 | 862.59 ± 0.24 | 858.18 ± 0.24 | 849.33 ± 0.24 | 840.42 ± 0.24 | 831.42 ± 0.24
5 | Cc1ccccc1 [toluene] | 1.493 ± 0.0005 | 866.89 ± 0.13 | 862.24 ± 0.13 | 857.58 ± 0.13 | 848.2 ± 0.13 | 838.76 ± 0.13 | 829.22 ± 0.14
6 | Cc1cccc(C)c1 [1,3-dimethylbenzene] | 1.4936 ± 0.0005 | 864.18 ± 0.24 | 859.88 ± 0.24 | 855.56 ± 0.24 | 846.85 ± 0.24 | 837.92 ± 0.24 | 829.01 ± 0.24
7 | CCCCN(CCCC)CCCC [tributylamine] | 1.4259 ± 0.0005 | 776.91 ± 0.24 | 773.18 ± 0.24 | 769.45 ± 0.24 | 761.97 ± 0.24 | 754.45 ± 0.24 | 746.88 ± 0.24
